Columns and labels:
[1] = tested on: single shoots of Swietenia macrophylla; experiment: Rooting conditions (2): modified MS medium for 3 months; assay type: cell-based
Method: A large number of shoots obtained in (4) were cut to single shoots which were cultured in the following procedures:
(2) The single shoots were cultured on a modified MS medium containing 0 to 10.0 mg/l of IBA for 3 months, while transplanting the shoots to a fresh medium of the same composition every month.
All the above (1)-(4) cultures were conducted under conditions wherein a temperature was 26±2° C., a humidity was 60 to 90% and a light intensity was 3,000 to 9,000 Lux. Further, all the modified media in the above (1)-(4) contained 2.8 g/l of gelright.

[2] = tested on: single shoots of Swietenia macrophylla; experiment: Rooting of single shoots on modified B5 rooting medium; assay type: cell-based
Method: A large number of shoots obtained in (4) are cut to single shoots, which were then transplanted to a rooting medium. […] Culturing temperature was 26±2° C. under illumination of fluorescent lamps for 16 hours per day (3,000 to 9,000 Lux).

## O=C(O)CCCc1c[nH]c2ccccc12 [IBA, 3-indole butyric acid]
[1]; IBA 0.1 mg/l
  Rooting rate (%) For first one month: 0.0%
  Rooting rate (%) For second one month: 0.0%
  Rooting rate (%) For third one month: 0.0%
  Withering rate (%) For first one month: 0.0%
  Withering rate (%) For second one month: 69.2%
  Withering rate (%) For third one month: 84.6%
[1]; IBA 1.0 mg/l
  Rooting rate (%) For first one month: 0.0%
  Rooting rate (%) For second one month: 3.8%
  Rooting rate (%) For third one month: 3.8%
  Withering rate (%) For first one month: 0.0%
  Withering rate (%) For second one month: 46.2%
  Withering rate (%) For third one month: 73.1%
[1]; IBA 2.0 mg/l
  Rooting rate (%) For first one month: 0.0%
  Rooting rate (%) For second one month: 3.8%
  Rooting rate (%) For third one month: 11.5%
  Withering rate (%) For first one month: 0.0%
  Withering rate (%) For second one month: 30.8%
  Withering rate (%) For third one month: 76.9%
[1]; IBA 2.5 mg/l
  Rooting rate (%) For first one month: 0.0%
  Rooting rate (%) For second one month: 13.3%
  Rooting rate (%) For third one month: 16.7%
  Withering rate (%) For first one month: 0.0%
  Withering rate (%) For second one month: 26.7%
  Withering rate (%) For third one month: 66.7%
[1]; IBA 3.0 mg/l
  Rooting rate (%) For first one month: 0.0%
  Rooting rate (%) For second one month: 3.7%
  Rooting rate (%) For third one month: 11.1%
  Withering rate (%) For first one month: 0.0%
  Withering rate (%) For second one month: 55.6%
  Withering rate (%) For third one month: 70.4%
[1]; IBA 4.0 mg/l
  Rooting rate (%) For first one month: 0.0%
  Rooting rate (%) For second one month: 0.0%
  Rooting rate (%) For third one month: 0.0%
  Withering rate (%) For first one month: 10.3%
  Withering rate (%) For second one month: 58.6%
  Withering rate (%) For third one month: 96.6%
[1]; IBA 5.0 mg/l
  Rooting rate (%) For first one month: 0.0%
  Rooting rate (%) For second one month: 0.0%
  Rooting rate (%) For third one month: 0.0%
  Withering rate (%) For first one month: 46.2%
  Withering rate (%) For second one month: 76.9%
  Withering rate (%) For third one month: 100.0%
[1]; IBA 10.0 mg/l
  Rooting rate (%) For first one month: 0.0%
  Rooting rate (%) For second one month: 0.0%
  Rooting rate (%) For third one month: 0.0%
  Withering rate (%) For first one month: 65.4%
  Withering rate (%) For second one month: 80.8%
  Withering rate (%) For third one month: 100.0%
[2]; 2.5 mg/l of IBA
  effectiveness for rooting: effective
[2]; 1.0 to 5.0 mg/l of IBA, one to two months after the start of culturing
  single shoots rooted: 18.5%
[2]; IBA 1.0 mg/l
  Number of rooted single shoots: 1/27
[2]; IBA 2.0 mg/l
  Number of rooted single shoots: 2/30
[2]; IBA 2.5 mg/l
  Number of rooted single shoots: 5/27
[2]; IBA 3.0 mg/l
  Number of rooted single shoots: 0/26
[2]; IBA 4.0 mg/l
  Number of rooted single shoots: 1/25
[2]; IBA 5.0 mg/l
  Number of rooted single shoots: 0/26
[2]; IBA 10.0 mg/l
  Number of rooted single shoots: 0/26

— US6481154B1, “Method of large-scale propagation of trees of genus Swietenia” (Sumitomo Forestry Co., Ltd., priority 2000, dated 2002)
